Measured values taken from article PMC3783901, “A spectrophotometric coupled enzyme assay to measure the activity of succinate dehydrogenase^” (Analytical Biochemistry, 2013).
Read-outs that look alike come from different tables or passages of the source.

Key:
[1] = target: FumC (fumarate hydratase) (Escherichia coli, UniProt P05042); details: pH 7.4, 32 °C, 10 mM Tris-SO4, 2 mM MgSO4, 1 mM K2SO4, 2 mM NADP+, 300 μg/ml MaeB; kcat apparently per tetramer
[2] = target: T1, complex II (succinate:ubiquinone oxidoreductase, succinate dehydrogenase) in bovine heart submitochondrial particles (Bos taurus, UniProt P31039+P35720+Q3T189+Q95123); assay: coupled FumC-MaeB assay of succinate oxidation in SMPs, NADPH absorbance; type: biochemical; details: 5 mM succinate, pH 7.4, 32 °C, 2 mM NADP+, 2 mM MgSO4
T1 construct: gene SDHA; native four-subunit complex in submitochondrial particles from bovine heart mitochondria, not isolated; dicarboxylate site in SDHA, ubiquinone site at SDHB/SDHC/SDHD
T1 sequence (P31039 44-665): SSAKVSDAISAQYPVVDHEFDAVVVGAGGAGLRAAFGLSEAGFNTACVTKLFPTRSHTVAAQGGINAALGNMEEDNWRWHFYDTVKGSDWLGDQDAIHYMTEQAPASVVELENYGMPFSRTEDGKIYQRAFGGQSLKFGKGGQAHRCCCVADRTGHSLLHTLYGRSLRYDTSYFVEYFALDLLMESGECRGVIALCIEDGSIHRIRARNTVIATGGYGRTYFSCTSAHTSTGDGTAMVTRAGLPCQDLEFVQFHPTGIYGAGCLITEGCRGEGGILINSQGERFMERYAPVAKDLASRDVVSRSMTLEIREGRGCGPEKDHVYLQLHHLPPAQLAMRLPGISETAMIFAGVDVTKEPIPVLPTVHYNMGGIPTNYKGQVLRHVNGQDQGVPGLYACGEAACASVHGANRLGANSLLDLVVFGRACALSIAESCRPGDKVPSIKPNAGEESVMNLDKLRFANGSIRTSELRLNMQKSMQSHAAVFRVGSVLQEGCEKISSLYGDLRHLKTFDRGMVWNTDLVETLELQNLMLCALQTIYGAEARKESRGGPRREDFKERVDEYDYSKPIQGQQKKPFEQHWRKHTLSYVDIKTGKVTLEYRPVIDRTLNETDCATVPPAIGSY
T1 sequence (Q3T189 29-280): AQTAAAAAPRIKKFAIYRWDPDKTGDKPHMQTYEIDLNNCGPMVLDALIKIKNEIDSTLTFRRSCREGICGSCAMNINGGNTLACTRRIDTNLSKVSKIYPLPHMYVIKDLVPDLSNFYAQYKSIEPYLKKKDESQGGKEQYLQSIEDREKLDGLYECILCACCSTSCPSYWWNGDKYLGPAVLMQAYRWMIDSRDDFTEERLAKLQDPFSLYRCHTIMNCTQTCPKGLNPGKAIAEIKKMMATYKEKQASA
T1 sequence (P35720 30-169): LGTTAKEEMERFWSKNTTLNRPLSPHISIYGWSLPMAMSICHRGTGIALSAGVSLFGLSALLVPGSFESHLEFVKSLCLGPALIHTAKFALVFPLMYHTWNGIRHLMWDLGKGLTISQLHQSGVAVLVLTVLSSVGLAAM
T1 sequence (Q95123 56-158): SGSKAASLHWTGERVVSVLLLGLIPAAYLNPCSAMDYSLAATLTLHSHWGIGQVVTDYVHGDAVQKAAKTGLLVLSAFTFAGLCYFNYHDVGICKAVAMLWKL
Text: coupled FumC-MaeB assay of succinate oxidation in SMPs, NADPH absorbance on complex II (succinate:ubiquinone oxidoreductase, succinate dehydrogenase) in bovine heart submitochondrial particles | atpenin A5, an inhibitor that binds in the complex II ubiquinone-binding site, has an IC50 | malonate, an inhibitor that binds in the complex II flavin site, has an IC50

[3] = target: T1, complex II (succinate:ubiquinone oxidoreductase, succinate dehydrogenase) in bovine heart submitochondrial particles; assay: as above; type: biochemical; details: pH 7.4, 32 °C, 2 mM NADP+, 2 mM MgSO4, endogenous ubiquinone-10, turnover to O2, kcat uses a published complex II content
purified protein [4] = substrate: NC(=O)c1ccc[n+]([C@@H]2O[C@H](COP(=O)(O)OP(=O)(O)OC[C@H]3O[C@@H](n4cnc5c(N)ncnc54)[C@H](OP(=O)(O)O)[C@@H]3O)[C@@H](O)[C@H]2O)c1; assay: purified protein; details: 40 mM malate, pH 7.4, 32 °C, 10 mM Tris-SO4, 2 mM MgSO4, 1 mM K2SO4
purified protein [5] = substrate: O=C(O)C[C@H](O)C(=O)O; assay: purified protein; details: 4 mM NADP+, pH 7.4, 32 °C, 10 mM Tris-SO4, 2 mM MgSO4, 1 mM K2SO4, kcat apparently per octamer, malate stereo not given

FumC (fumarate hydratase), sequence (P05042 whole entry): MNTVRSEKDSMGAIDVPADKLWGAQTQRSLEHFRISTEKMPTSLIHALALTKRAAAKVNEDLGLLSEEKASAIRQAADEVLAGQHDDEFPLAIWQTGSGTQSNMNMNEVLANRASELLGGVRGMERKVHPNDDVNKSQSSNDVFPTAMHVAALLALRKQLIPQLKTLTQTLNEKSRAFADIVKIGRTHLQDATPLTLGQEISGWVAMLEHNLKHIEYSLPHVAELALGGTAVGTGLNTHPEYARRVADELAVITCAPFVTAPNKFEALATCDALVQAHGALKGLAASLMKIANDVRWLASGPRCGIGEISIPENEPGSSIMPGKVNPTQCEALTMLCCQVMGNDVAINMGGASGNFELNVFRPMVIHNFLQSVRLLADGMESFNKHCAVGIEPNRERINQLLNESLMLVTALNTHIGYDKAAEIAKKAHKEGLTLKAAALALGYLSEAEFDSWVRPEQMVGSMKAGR

With `O=C(O)/C=C/C(=O)O` [fumarate] the Km [1] was 64 ± 7.8 µM.

With `O=C(O)CC(=O)O` [malonate] the IC50 ([2]; flavin (succinate) site, read-out: IC50) was 96 ± 1.3 µM.

Work on `O=C(O)CCC(=O)O` [succinate] yielded a Km [3] of 410 ± 55 µM.

With `COc1[nH]c(=O)c(C(=O)[C@@H](C)C[C@H](C)[C@@H](Cl)CCl)c(O)c1OC` [atpenin A5] the IC50 ([2]; ubiquinone-binding site, full respiratory chain turnover to O2) was 0.0024 ± 0.0012 µM.

B1: MaeB (oxaloacetate decarboxylating malic dehydrogenase) (Escherichia coli K-12) (protein)
chain: MDDQLKQSALDFHEFPVPGKIQVSPTKPLATQRDLALAYSPGVAAPCLEIEKDPLKAYKYTARGNLVAVISNGTAVLGLGNIGALAGKPVMEGKGVLFKKFAGIDVFDIEVDELDPDKFIEVVAALEPTFGGINLEDIKAPECFYIEQKLRERMNIPVFHDDQHGTAIISTAAILNGLRVVEKNISDVRMVVSGAGAAAIACMNLLVALGLQKHNIVVCDSKGVIYQGREPNMAETKAAYAVVDDGKRTLDDVIEGADIFLGCSGPKVLTQEMVKKMARAPMILALANPEPEILPPLAKEVRPDAIICTGRSDYPNQVNNVLCFPFIFRGALDVGATAINEEMKLAAVRAIAELAHAEQSEVVASAYGDQDLSFGPEYIIPKPFDPRLIVKIAPAVAKAAMESGVATRPIADFDVYIDKLTEFVYKTNLFMKPIFSQARKAPKRVVLPEGEEARVLHATQELVTLGLAKPILIGRPNVIEMRIQKLGLQIKAGVDFEIVNNESDPRFKEYWTEYFQIMKRRGVTQEQAQRALISNPTVIGAIMVQRGEADAMICGTVGDYHEHFSVVKNVFGYRDGVHTAGAMNALLLPSGNTFIADTYVNDEPDAEELAEITLMAAETVRRFGIEPRVALLSHSNFGSSDCPSSSKMRQALELVRERAPELMIDGEMHGDAALVEAIRNDRMPDSSLKGSANILVMPNMEAARISYNLLRVSSSEGVTVGPVLMGVAKPVHVLTPIASVRRIVNMVALAVVEAQTQPL
B1 gave a Km (purified protein [4]) of 52 ± 2.6 µM, a Km (purified protein [5]) of 7300 ± 900 µM and a kcat (purified protein [5]) of 92 ± 0.93 s⁻¹.
